Test results taken from patent US4169834A, “Rifamycin derivatives” (Gruppo Lepetit S.p.A., priority 1977, dated 1979).
≈ marks a conversion by molar mass, not a printed value.

Legend:
Assay type in all cases: cell-based
Pseud. aeruginosa = experiment: in vitro antibacterial activity (MIC), Pseud. aeruginosa; conditions: Pseudomonas aeruginosa
Description: (§1) The MIC is expressed as μg/ml.

Staph. Aureus = experiment: in vitro antibacterial activity (MIC), Staph. Aureus; conditions: Staphylococcus aureus
Description: as §1

Staph. Aureus Tour = experiment: in vitro antibacterial activity (MIC), Staph. Aureus Tour; conditions: Staphylococcus aureus
Description: as §1

Strept. pneumoniae = experiment: in vitro antibacterial activity (MIC), Strept. pneumoniae; conditions: Streptococcus pneumoniae
Description: as §1

Strept. faecalis = experiment: in vitro antibacterial activity (MIC), Strept. faecalis; conditions: Enterococcus faecalis
Description: as §1

Strept. haemolyticus = experiment: in vitro antibacterial activity (MIC), Strept. haemolyticus
Description: as §1

Escherichia coli = experiment: in vitro antibacterial activity (MIC), Escherichia coli
Description: as §1

Kleb. pneumoniae = experiment: in vitro antibacterial activity (MIC), Kleb. pneumoniae; conditions: Klebsiella pneumoniae
Description: as §1

Proteus vulgaris = experiment: in vitro antibacterial activity (MIC), Proteus vulgaris
Description: as §1

Myc. Tub. H37 Rv = experiment: in vitro antibacterial activity (MIC), Myc. Tub. H37 Rv

| Compound | MIC (Pseud. aeruginosa) | MIC (Staph. Aureus) | MIC (Staph. Aureus Tour) | MIC (Strept. pneumoniae) | MIC (Strept. faecalis) | MIC (Strept. haemolyticus) | MIC (Escherichia coli) | MIC (Kleb. pneumoniae) | MIC (Proteus vulgaris) | MIC (Myc. Tub. H37 Rv) |
| --- | --- | --- | --- | --- | --- | --- | --- | --- | --- | --- |
| CCc1nc2c(s1)c1c(O)c3c(O)c(C)c4c(c32)C(=O)C(C)(OC=CC(OC)C(C)C(OC(C)=O)C(C)C(O)C(C)C(O)C(C)C=CC=C(C)C(=O)N1)O4 (stereo not shown) [Example 1, 4-Deoxy-2'-ethyl-thiazolo[5,4-c]rifamycin SV] | 12.5 µg/mL (≈ 16.3 µM) | 0.0004 µg/mL (≈ 0.000522 µM) | 0.00078 µg/mL (≈ 0.00102 µM) | 0.0062 µg/mL (≈ 0.00808 µM) | 0.0062 µg/mL (≈ 0.00808 µM) | 0.012 µg/mL (≈ 0.0156 µM) | 12.5 µg/mL (≈ 16.3 µM) | 25 µg/mL (≈ 32.6 µM) | 6.25 µg/mL (≈ 8.15 µM) | 0.31 µg/mL (≈ 0.404 µM) |
| COC1C=COC2(C)Oc3c(C)c(O)c4c(O)c(c5sc(C)nc5c4c3C2=O)NC(=O)C(C)=CC=CC(C)C(O)C(C)C(O)C(C)C(OC(C)=O)C1C (stereo not shown) [Example 2, 4-Deoxy-2'-methyl-thiazolo[5,4-c]rifamycin SV] | 25 µg/mL (≈ 33.2 µM) | 0.00078 µg/mL (≈ 0.00104 µM) | 0.0031 µg/mL (≈ 0.00412 µM) | 0.0062 µg/mL (≈ 0.00824 µM) | 0.0031 µg/mL (≈ 0.00412 µM) | 0.0031 µg/mL (≈ 0.00412 µM) | 12.5 µg/mL (≈ 16.6 µM) | 25 µg/mL (≈ 33.2 µM) | 1.56 µg/mL (≈ 2.07 µM) | 0.62 µg/mL (≈ 0.824 µM) |
| CCCc1nc2c(s1)c1c(O)c3c(O)c(C)c4c(c32)C(=O)C(C)(OC=CC(OC)C(C)C(OC(C)=O)C(C)C(O)C(C)C(O)C(C)C=CC=C(C)C(=O)N1)O4 (stereo not shown) [Example 3, 4-Deoxy-2'-propyl-thiazolo[5,4-c]rifamycin SV] | 12.5 µg/mL (≈ 16 µM) | 0.00078 µg/mL (≈ 0.000999 µM) | 0.00156 µg/mL (≈ 0.002 µM) | 0.00078 µg/mL (≈ 0.000999 µM) | 0.00156 µg/mL (≈ 0.002 µM) | 0.0031 µg/mL (≈ 0.00397 µM) | 12.5 µg/mL (≈ 16 µM) | 25 µg/mL (≈ 32 µM) | 3.12 µg/mL (≈ 4 µM) | 0.62 µg/mL (≈ 0.794 µM) |
| COC1C=COC2(C)Oc3c(C)c(O)c4c(O)c(c5sc(C(C)C)nc5c4c3C2=O)NC(=O)C(C)=CC=CC(C)C(O)C(C)C(O)C(C)C(OC(C)=O)C1C (stereo not shown) [Example 4, 4-Deoxy-2'-isopropyl-thiazolo[5,4-c]rifamycin SV] | 12.5 µg/mL (≈ 16 µM) | 0.00078 µg/mL (≈ 0.000999 µM) | 0.00156 µg/mL (≈ 0.002 µM) | 0.012 µg/mL (≈ 0.0154 µM) | 0.012 µg/mL (≈ 0.0154 µM) | 0.012 µg/mL (≈ 0.0154 µM) | 12.5 µg/mL (≈ 16 µM) | 25 µg/mL (≈ 32 µM) | 6.25 µg/mL (≈ 8 µM) | 0.31 µg/mL (≈ 0.397 µM) |
| COC1C=COC2(C)Oc3c(C)c(O)c4c(O)c(c5sc(CC(C)C)nc5c4c3C2=O)NC(=O)C(C)=CC=CC(C)C(O)C(C)C(O)C(C)C(OC(C)=O)C1C (stereo not shown) [Example 5, 4-Deoxy-2'-isobutyl-thiazolo[5,4-c]rifamycin SV] | 12.5 µg/mL (≈ 15.7 µM) | 0.00078 µg/mL (≈ 0.000981 µM) | 0.001 µg/mL (≈ 0.00126 µM) | 0.0062 µg/mL (≈ 0.0078 µM) | 0.0062 µg/mL (≈ 0.0078 µM) | 0.001 µg/mL (≈ 0.00126 µM) | 12.5 µg/mL (≈ 15.7 µM) | 50 µg/mL (≈ 62.9 µM) | 3.12 µg/mL (≈ 3.92 µM) | 0.15 µg/mL (≈ 0.189 µM) |
| CCCCCCc1nc2c(s1)c1c(O)c3c(O)c(C)c4c(c32)C(=O)C(C)(OC=CC(OC)C(C)C(OC(C)=O)C(C)C(O)C(C)C(O)C(C)C=CC=C(C)C(=O)N1)O4 (stereo not shown) [Example 6, 4-Deoxy-2'-hexyl-thiazolo[5,4-c]rifamycin SV] | 12.5 µg/mL (≈ 15.2 µM) | 0.0012 µg/mL (≈ 0.00146 µM) | 0.0031 µg/mL (≈ 0.00377 µM) | 0.012 µg/mL (≈ 0.0146 µM) | 0.012 µg/mL (≈ 0.0146 µM) | 0.012 µg/mL (≈ 0.0146 µM) | 12.5 µg/mL (≈ 15.2 µM) | 25 µg/mL (≈ 30.4 µM) | 3.12 µg/mL (≈ 3.79 µM) | 1.2 µg/mL (≈ 1.46 µM) |
| COC1C=COC2(C)Oc3c(C)c(O)c4c(O)c(c5scnc5c4c3C2=O)NC(=O)C(C)=CC=CC(C)C(O)C(C)C(O)C(C)C(O)C1C (stereo not shown) [Example 8, 25-Desacetyl-4-deoxy-thiazolo[5,4-c]rifamycin SV] | 12.5 µg/mL (≈ 17.9 µM) | 0.02 µg/mL (≈ 0.0287 µM) | 0.1 µg/mL (≈ 0.144 µM) | 0.1 µg/mL (≈ 0.144 µM) | 0.4 µg/mL (≈ 0.574 µM) | 0.1 µg/mL (≈ 0.144 µM) | 6.25 µg/mL (≈ 8.97 µM) | 12.5 µg/mL (≈ 17.9 µM) | 0.78 µg/mL (≈ 1.12 µM) | 0.6 µg/mL (≈ 0.861 µM) |
